Measurements taken from the SangsterLogP compilation.
Values belong to the compound of their own block, whether it stands above or below them.

Columns and labels:
[1] = method code SF-AS, from DOI: 10.2307/3577276, PMID: 2913608
[2] = method code SF-HPLC, from DOI: 10.1002/ps.2780220406
[3] = method code SF-HPLC, from DOI: 10.1016/s0021-9673(01)88640-4
[4] = method code SF-GLC, from DOI: 10.1016/0378-4274(82)90116-3, PMID: 7090003
[5] = method code SF-AS, from DOI: 10.1016/0021-9673(91)80064-n
[6] = method code SF-AS, from DOI: 10.1007/s001289900721, PMID: 9657823
[7] = not given; remark: listed apart in the source
[8] = method code SF, from DOI: 10.1016/0360-3016(89)90912-7, PMID: 2703384; conditions: pH 7.4
[9] = not given; remark: listed apart in the source
[10] = method code SF, from DOI: 10.1016/0360-3016(86)90226-9, PMID: 3744928; conditions: pH 7.4
[11] = method code SF, from DOI: 10.1002/jps.2600830714, PMID: 7965679
[12] = not given; remark: listed apart in the source
[13] = method code SF-AS, from DOI: 10.1007/bf02877675, PMID: 411721
[14] = not given; remark: listed apart in the source
[15] = method code SF-HPLC, from DOI: 10.1248/cpb.43.1894
[16] = method code SF-HPLC, from DOI: 10.3109/14756366.2013.845817, PMID: 24156741

- logP [1]: 2.28
SMILES: CC(C)(C)c1ccc(NS(=O)(=O)c2[nH]cnc2[N+](=O)[O-])cc1

- logP [2]: 1.1
SMILES: COc1ccc(Cn2cncn2)cc1

- logP [3]: -0.31
SMILES: N#CN=[N+]([O-])c1ncccn1

- logP [4]: 2.66
SMILES: C=C(C)C(=O)OCC(C)C

SMILES: C=CC(=O)OCCO
- logP [4]: -0.21

- logP [5]: -0.21
SMILES: C=CC(=O)NCCc1c[nH]cn1

- logP [6]: 2.5
SMILES: O=Cc1cc(O)cc(Br)c1

- logP [6]: 1.29
SMILES: O=Cc1cccc(O)c1

- logP [2]: 2.81
SMILES: CCCCc1ccc(Cn2cncn2)cc1

- logP [6]: 1.63
SMILES: CCOc1ccc(C=O)cc1OC

- logP: 3.27
SMILES: NS(=O)(=O)c1cc(C(=O)O)cc(N2CCCC2)c1Oc1ccccc1

- logP [7]: 3.9
SMILES: Cc1ccc(S(=O)(=O)Oc2c(C(=O)c3ccc(Cl)cc3Cl)c(C)nn2C)cc1

- logP [5]: 0.72
SMILES: C=CC(=O)NCCCN(CC)CC

- logD [8]: -0.46
SMILES: O=C(Cn1cnc([N+](=O)[O-])c1)NCCO

- logP [2]: 1.1
SMILES: Fc1ccc(Cn2cncn2)cc1

- logP [9]: 2.14
SMILES: N#Cc1cc(-c2ccncc2)cnc1N1CCN(CCO)CC1

- logD [10]: -1.24
SMILES: O=C(Cn1cnc([N+](=O)[O-])n1)NCCCO

- logP [11]: -1.1
SMILES: O=NN(CCCl)C(=O)NCC(=O)NC1C(O)OC(CO)C(O)C1O (configuration not stated)

- logD [10]: -0.07
SMILES: CCOCC(O)Cn1cnc([N+](=O)[O-])n1 (configuration not stated)

- logP [12]: -0.34
SMILES: c1cncnc1

SMILES: N#CC(C#N)=NNc1ccc([N+](=O)[O-])cc1
- logP [13]: 2.34

SMILES: CCOP(=S)(OCC)SCCSCC
- logP [7]: 3.84

- logD [8]: 0.18
SMILES: COCC(F)Cn1ccnc1[N+](=O)[O-] (configuration not stated)

- logP [6]: 1.83
SMILES: O=Cc1ccc(O)c(Br)c1

- logP [14]: -0.88
SMILES: Cc1cc[n+]([O-])cc1

- logP [2]: 0.92
SMILES: c1ccc(Cn2cncn2)cc1

- logP [15]: 3.9
SMILES: CSC(=S)C(C)(C)C(=O)c1ccccc1

- logP [1]: 0.2
SMILES: CC(=O)Nc1cccc(NS(=O)(=O)c2[nH]cnc2[N+](=O)[O-])c1

- logP [5]: -0.25
SMILES: C=CC(=O)NCCN(C)C

- logP [16]: 5.82
SMILES: C#CCn1cc(C(=O)NC(c2ccccc2)C(O)C(=O)NC2CCCC2)c(=O)c2cc(F)c(Cl)nc21 (configuration not stated)

SMILES: NC(=O)CNC(=O)N(CCCl)N=O
- logP [11]: -0.3

SMILES: O=[N+]([O-])c1nccn1CC(O)CN1CC1 (configuration not stated)
- logD [10]: -0.66

SMILES: O=[N+]([O-])c1cn(CC(O)CF)cn1 (configuration not stated)
- logD [8]: -0.44

- logP [13]: 3.38
SMILES: N#CC(C#N)=NNc1ccc(Br)cc1

- logP [9]: 2.56
SMILES: CCN(CC)CCCNc1ncc(-c2ccncc2)cc1C#N

SMILES: CCCOP(=S)(OCCC)SCC(=O)N1CCCCC1C (configuration not stated)
- logP [7]: 4.04

SMILES: C=CC(=O)OCC(C)C
- logP [4]: 2.22

- logP [4]: 2.54
SMILES: C=C(C)C(=O)OC(C)(C)C

- logP: 1.65
SMILES: NS(=O)(=O)c1cc(Cl)ccc1Cl

SMILES: COP1(=S)OCc2ccccc2O1 (configuration not stated)
- logP [7]: 2.12

- logP [1]: -0.74
SMILES: Cn1cnc([N+](=O)[O-])c1S(N)(=O)=O

- logP [16]: 5.14
SMILES: C#CCn1cc(C(=O)NC(c2ccccc2)C(O)C(=O)NC2CCCCC2)c(=O)c2ccc(Cl)nc21 (configuration not stated)

- logP [14]: -0.53
SMILES: CCOc1cc[n+]([O-])cc1

- logP [14]: -0.93
SMILES: CC(=O)c1cc[n+]([O-])cc1

- logP [9]: 3.15
SMILES: Cc1nc(N2CCNCC2)c(C#N)cc1-c1ccccc1

- logP [5]: 0.54
SMILES: C=CC(=O)NCCCN1CCSCC1

- logP [9]: 2.43
SMILES: N#Cc1cc(-c2ccncc2)cnc1NCCCN1CCOCC1

SMILES: N#CC(C#N)=NNc1ccccc1Cl
- logP [13]: 2.65

- logP [1]: -0.06
SMILES: CC(=O)Nc1ccccc1NS(=O)(=O)c1[nH]cnc1[N+](=O)[O-]

- logP [14]: 0.41
SMILES: [O-][n+]1cccc2ccccc21

- logP [16]: 5.32
SMILES: C#CCn1cc(C(=O)NC(c2ccccc2)C(O)C(=O)Nc2ccccn2)c(=O)c2cc(F)c(Cl)nc21 (configuration not stated)

- logP [9]: 2.96
SMILES: Cc1nc(N2CCNCC2)c(C#N)cc1-c1ccncc1

- logP [3]: -0.41
SMILES: N#CN=[N+]([O-])c1cc[n+]([O-])cc1

- logD [10]: -0.38
SMILES: COC(=O)Cn1cnc([N+](=O)[O-])n1

- logP [13]: 3.42
SMILES: N#CC(C#N)=NNc1ccc(Cl)c(Cl)c1

- logP [12]: 0.79
SMILES: CCc1cnccn1

SMILES: N#CN=[N+]([O-])c1ccnc2ccccc12
- logP [3]: 2.07

- logP [1]: -0.37
SMILES: CCNS(=O)(=O)c1[nH]cnc1[N+](=O)[O-]

- logP [11]: -1.04
SMILES: CO[C@H]1O[C@H](CO)[C@@H](O)[C@H](O)[C@H]1NC(=O)CNC(=O)N(CCCl)N=O

- logP: -0.03
SMILES: CC(C)CN[C@H]1CCS(=O)(=O)c2sc(S(N)(=O)=O)cc21

- logP [4]: 0.97
SMILES: C=C(C)C(=O)OCC(C)O (configuration not stated)

- logP [5]: -0.6
SMILES: C=CC(=O)NCCCN(CCO)CCO

- logP [7]: 3.73
SMILES: CCN(OC(=O)c1ccccc1)C(=O)c1c(OC)ccc(Cl)c1OC

- logP [16]: 4.02
SMILES: C#CCn1cc(C(=O)NC(c2ccccc2)C(O)C(=O)Nc2ccccn2)c(=O)c2cccnc21 (configuration not stated)

- logP [6]: 3.35
SMILES: O=Cc1cc(Br)ccc1Br

- logP [9]: 1.93
SMILES: N#Cc1cc(-c2ccncc2)cnc1NCCN

- logD [8]: 0.04
SMILES: O=[N+]([O-])c1nccn1CC(F)(F)CO

- logP [15]: 2.8
SMILES: CSC(=S)C(C)(C)C(C)=O

- logP [5]: 0
SMILES: C=CC(=O)NCCCN(C)C

- logP [1]: 1.38
SMILES: O=[N+]([O-])c1nc[nH]c1S(=O)(=O)NC1CCCCC1

- logP [15]: 3.12
SMILES: S=C1CCCC1=C1SCCS1

- logP: 0.4
SMILES: NS(=O)(=O)c1ccccc1[N+](=O)[O-]

SMILES: N#CN=[N+]([O-])c1cccc2ccccc12
- logP [3]: 3.17

SMILES: N#CC(C#N)=NNc1ccc(Cl)cc1
- logP [13]: 3.08

SMILES: NS(=O)(=O)c1ccc([N+](=O)[O-])cc1[N+](=O)[O-]
- logP: 0.3

SMILES: c1ccoc1
- logP [12]: 1.31

- logP [9]: 2.51
SMILES: N#Cc1cc(-c2ccncc2)cnc1N1CCNCC1

- logP [12]: 1.57
SMILES: CCOC(=O)c1ccco1

- logP [14]: -0.91
SMILES: N#Cc1cc[n+]([O-])cc1

SMILES: N#CN=[N+]([O-])c1ccccn1
- logP [3]: 0.53

- logP [14]: -0.44
SMILES: [O-][n+]1ccc(Cl)cc1

- logP [12]: 2.61
SMILES: Cc1c[nH]c2ccccc12

SMILES: CCOC(=O)C(SP(=S)(OC)OC)c1ccccc1 (configuration not stated)
- logP [7]: 3.32

- logP [11]: -0.76
SMILES: COC1OC(CO)C(O)C(O)C1NC(=O)C(C)NC(=O)N(CCCl)N=O (configuration not stated)

- logD [8]: -0.21
SMILES: O=[N+]([O-])c1cn(CC(F)(F)CO)cn1

- logD [10]: -1.54
SMILES: O=[N+]([O-])c1ncn([C@H]2O[C@H](CO)[C@@H](O)[C@H]2O)n1

- logP: 0.58
SMILES: NS(=O)(=O)c1ccc([N+](=O)[O-])cc1

- logP [3]: 1.12
SMILES: N#CN=[N+]([O-])c1cc[n+]([O-])c2ccccc12

- logP: 1.83
SMILES: CN(C)c1cccc2c(S(N)(=O)=O)cccc12

- logP [16]: 4.25
SMILES: C#CCn1cc(C(=O)NC(c2ccccc2)C(O)C(=O)Nc2ccccc2)c(=O)c2cccnc21 (configuration not stated)

- logP [15]: 3.74
SMILES: CSC(=S)c1ccccc1SC

- logD [10]: 0.05
SMILES: O=[N+]([O-])c1ncn(CC(O)CCl)n1 (configuration not stated)

- logP [15]: 2.59
SMILES: CC(C)C(=O)c1ccccc1

- logP [12]: 1.05
SMILES: CNC(=O)c1ccccc1

- logP [4]: 0.47
SMILES: C=C(C)C(=O)OCCO

SMILES: CCCOP(=O)(OCCC)Oc1ccc(SC)cc1
- logP [7]: 3.44

- logP [2]: 1.74
SMILES: FC(F)(F)c1cccc(Cn2cncn2)c1

- logP [16]: 5.96
SMILES: C#CCn1cc(C(=O)NC(CC(=O)NC2CCCC2)c2ccccc2)c(=O)c2cc(F)c(Cl)nc21 (configuration not stated)

- logP [6]: 1.88
SMILES: CC(C)OC(=O)COc1ccc(C=O)cc1

- logP [16]: 5.41
SMILES: C#CCn1cc(C(=O)NC(CC(=O)Nc2ccccc2)c2ccccc2)c(=O)c2ccc(Cl)nc21 (configuration not stated)

- logP [11]: -1.02
SMILES: CC(NC(=O)N(CCCl)N=O)C(=O)NC1C(O)OC(CO)C(O)C1O (configuration not stated)

- logP [2]: 1.84
SMILES: Clc1ccc(Cn2cncn2)cc1

- logP [15]: 3.81
SMILES: CSC(=S)C1=C(SC)CCCC1

- logD [8]: -0.15
SMILES: COCCNC(=O)C(F)(F)Cn1ccnc1[N+](=O)[O-]

- logP [11]: 0.61
SMILES: CC(=O)OC[C@H]1O[C@@H](OC(C)=O)[C@H](NC(=O)CNC(=O)N(CCCl)N=O)[C@@H](OC(C)=O)[C@@H]1OC(C)=O

SMILES: COc1cc(C=O)cc(OC)c1OC
- logP [6]: 1.39

- logP [15]: 3.3
SMILES: CSC1=CCCCC1
